In article PMC11812216, “Multifunctional hyaluronic acid-based biomimetic/pH-responsive hybrid nanostructured lipid carriers for treating bacterial sepsis” (Journal of Biomedical Science, 2025):

Columns and labels:
[1] = target: T1, Recombinant human TLR2 (RPA663Hu03) (Homo sapiens, UniProt O60603); assay: microscale thermophoresis, His-tag-labelled TLR2; assay type: binding
T1 construct: commercial recombinant protein (Biocom Africa), His-tag labelled with Red-tris-NTA
Excerpt: microscale thermophoresis, His-tag-labelled TLR2 on Recombinant human TLR2 (RPA663Hu03)

[2] = target: T2, Recombinant human TLR4 (Active ab233665) (Homo sapiens, UniProt O00206); assay: microscale thermophoresis, Blue-NHS-labelled TLR4; assay type: binding
T2 construct: commercial recombinant protein (Abcam), labelled with Blue-NHS dye; no MD-2 mentioned
T2 sequence (O00206 24-631 limits assumed): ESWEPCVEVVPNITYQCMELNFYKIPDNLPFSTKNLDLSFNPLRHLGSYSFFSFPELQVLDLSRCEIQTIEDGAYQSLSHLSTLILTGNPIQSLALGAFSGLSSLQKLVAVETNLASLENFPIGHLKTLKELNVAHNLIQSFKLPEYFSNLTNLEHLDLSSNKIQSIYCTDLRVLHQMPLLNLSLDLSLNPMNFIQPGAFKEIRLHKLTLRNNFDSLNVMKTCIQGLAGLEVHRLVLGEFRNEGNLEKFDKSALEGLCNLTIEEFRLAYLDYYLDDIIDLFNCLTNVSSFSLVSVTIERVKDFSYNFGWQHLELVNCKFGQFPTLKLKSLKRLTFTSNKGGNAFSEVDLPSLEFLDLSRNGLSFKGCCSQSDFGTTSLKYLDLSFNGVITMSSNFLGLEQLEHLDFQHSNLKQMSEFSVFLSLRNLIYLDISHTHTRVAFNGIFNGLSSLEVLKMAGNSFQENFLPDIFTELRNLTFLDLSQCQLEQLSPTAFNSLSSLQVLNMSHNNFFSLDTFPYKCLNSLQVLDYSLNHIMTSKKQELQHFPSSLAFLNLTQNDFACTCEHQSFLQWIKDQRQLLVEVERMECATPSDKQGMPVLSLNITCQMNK
Excerpt: microscale thermophoresis, Blue-NHS-labelled TLR4 on Recombinant human TLR4 (Active ab233665)

T1 sequence (O60603 21-588 limits assumed): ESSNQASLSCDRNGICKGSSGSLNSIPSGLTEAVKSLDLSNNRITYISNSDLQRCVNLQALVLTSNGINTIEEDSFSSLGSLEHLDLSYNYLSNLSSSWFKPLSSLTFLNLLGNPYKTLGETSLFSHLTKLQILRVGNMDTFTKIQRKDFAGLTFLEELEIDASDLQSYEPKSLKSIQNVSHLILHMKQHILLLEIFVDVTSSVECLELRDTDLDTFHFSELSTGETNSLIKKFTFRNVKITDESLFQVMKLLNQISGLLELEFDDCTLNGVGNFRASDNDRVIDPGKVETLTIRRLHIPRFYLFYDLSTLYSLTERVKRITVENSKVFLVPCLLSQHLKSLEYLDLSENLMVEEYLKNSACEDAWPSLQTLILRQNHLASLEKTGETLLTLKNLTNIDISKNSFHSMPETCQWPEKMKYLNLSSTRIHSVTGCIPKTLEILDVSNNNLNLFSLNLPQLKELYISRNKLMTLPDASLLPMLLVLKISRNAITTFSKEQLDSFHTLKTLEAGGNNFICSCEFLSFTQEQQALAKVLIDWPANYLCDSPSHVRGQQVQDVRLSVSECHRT

- Kd [1]: 2.78 ± 0.74 µM
- Kd [2]: 43.5 ± 2.35 µM
Structure (SMILES): NCCCC[C@H](N)C(=O)O [Lys]
